Results from patent US11006626B2, “Compounds for protection of cells” (Sulfateq B.V., priority 2012, dated 2021).

Columns and labels:
[1] = tested on: Human Embryo Kidney (HEK) 293 cells; assay: Hypothermia/rewarming injury of HEK cells, trypan blue viability count; type: cell-based; conditions: for viability at 0.01 µM / viability at 0.1 µM / viability at 1 µM / viability at 10 µM / viability at 100 µM / viability at 1000 µM: Homo sapiens, HEK293, 24 h, read-out: % cells that survived; for viability at 0.01 µM / viability at 0.1 µM / viability at 1 µM / viability at 10 µM / viability at 100 µM / viability at 1000 µM / % cells that survived: 24 h at 4° C., 24 h rewarming; for % cells that survived, Mean: mean over the tested concentrations
[2] = tested on: porcine hearts; assay: Cold ischemic tolerance of porcine hearts, reperfusion in PhysioHeart platform; set-up: species or system pig
Source text: This example studies if SUL 109 as additive to standard heart transplantation protocols will help to prolong the maximal cold ischemic protection of porcine hearts. For long term arrest, for example in case of transplantation, a commonly used solution is CUSTODIOL®. With CUSTODIOL® solution it is possible to keep a heart in a cold ischemic state for up to six hours before reperfusion with warm oxygenated blood is necessary.
Two hearts were harvested from slaughterhouse pigs and treated as follows. […] After exsanguinations the sternum was quickly opened and the heart and lungs were removed as a whole. The heart was immediately submersed in an ice cold bath and the aorta was cut proximal to the brachocephalic side branches. A 19 mm cannula was inserted in the aorta and tied off. The carefully de-aired cannulla was used to retrogradely administer cold cardioplegic solution. In the first heart, 2 liters of standard CUSTODIOL® with 5000 IU/1 of heparin added was administered. The second heart was administered 2 liters of CUSTODIOL® with 5000 IU/1 of heparin and 10 ml/l of SUL 109 in 0.9% NaCl at 75 μM. Both hearts were stored in plastic bags filled with the same solutions and transported to the lab on ice at approximately 4° C. Before preparation the hearts were stored at 4° C. for 24 hours. The next day both hearts were prepared to be mounted in the PhysioHeart platform as described in DeHart et al 2011. After de-airing the hearts, retrograde reperfusion of the aorta was started with warm oxygenated blood at 38° C. Both flow of blood and pressure at the aortic root were registered during the experiment.

[3] = tested on: blood platelets; assay: Cold storage of PRP blood platelets, aggregation of thrombocytes after storage; type: cell-based; set-up: key: − means that most of the thrombocytes were aggregated; a + indicates that a few cells were still viable but some cells aggregated; a ++ indicates that almost all cells were viable; conditions: 30 mM; PRP platelets stored at 4° C.; 264 hours
Description: PRP platelets were harvested and 2.1 ml was suspended in Poly Propylene tubes of 5 ml, closed with a stop.
Several compounds according to the invention were added to the blood platelets directly after preparing the PRP plasma and incubated during 10 minutes at 37° C. or 30 minutes at room temperature. The blood platelets with the compound were then stored at 4° C.
A control was stored under shaking conditions at room temperature. Another control was stored at 4° C. without the addition of a compound.
A sample was taken out of each tube after 264 hours after addition of the compound and tested as follows: • The color and coagulation properties were visually analysed. • The thrombocyte cells that survived were counted and it was evaluated whether the thrombocytes were aggregated. • It was evaluated if the thrombocytes still were able to function after stimulation by the addition of ADP or under influence of collagen in a 96 well plate. • The adhesion was evaluated, meaning the ability of the platelets to bind collagen in a 6 well plate preincubated with collagen. • Via an ELISA assay, it was evaluated whether thromboxane was secreted from the platelets. Thromboxane facilitates aggregation and is produced by activated blood platelets.
Table 3 provides an overview of the results of the addition of the compounds to the blood platelets and evaluates the aggregation of the thrombocytes after addition of the compound according to the invention and cooling until 4° C.

[4] = at reperfusion after 24 hours at 4° C., vs. non treated heart

| Structure (SMILES) | viability at 0.01 µM ([1]; 10 nM) | viability at 0.1 µM ([1]; 100 nM) | viability at 1 µM ([1]; 1 μM) | viability at 10 µM ([1]; 10 μM) | viability at 100 µM ([1]; 100 μM) | viability at 1000 µM ([1]; 1 mM) | % cells that survived, Mean [1] | contraction after defibrillation shocks ([2]; at reperfusion after 24 hours at 4° C.) | contractile activity [2, 4] | vascular resistance [2, 4] | coronary flow ([2]; perfusion pressure of 80 mmHg, reperfusion after 24 hours at 4° C.) | contractive activity of the myocardial tissue ([2]; treated vs. non-treated heart) | Aggregation of blood platelets after storage [3] | % cells that survived ([1]; 10 nM) | % cells that survived ([1]; 100 nM) | % cells that survived ([1]; 1 μM) | % cells that survived ([1]; 10 μM) | % cells that survived ([1]; 100 μM) | % cells that survived ([1]; 1 mM) |
| --- | --- | --- | --- | --- | --- | --- | --- | --- | --- | --- | --- | --- | --- | --- | --- | --- | --- | --- | --- |
| Cc1c(C)c2c(c(C)c1O)CCC(C)(C(=O)N1CCN(CCO)CC1)O2 (stereo not drawn) [SUL - 109, (6-hydroxy-2,5,7,8-tetramethylchroman-2-yl)(4-(2-hydroxyethyl)piperazin-1-yl)methanone] | 92.6% | 98% | 97% | 94.9% | 93.7% | 87.4% | 94% | weak contractive unpaced pattern | more contractile activity compared to the non treated one | lower vascular resistance | 1 lpm | improved regular contractive activity | – | – | – | – | – | – | – |
| Cc1c(C)c2c(c(C)c1O)CC[C@@](C)(C(=O)NO)O2 [SUL - 126, (S)-N,6-dihydroxy-2,5,7,8-tetramethylchroman-2-carboxamide] | 0% | 0% | 68.1% | 92.7% | 98.6% | 80.2% | 57% | – | – | – | – | – | + | – | – | – | – | – | – |
| Cc1c(C)c2c(c(C)c1O)CCC(C)(C(=O)N1CCN(CCO)CC1)O2 (stereo not drawn) [SUL - 132, (6-hydroxy-2,5,7,8-tetramethylchroman-2-yl)(4-(2-hydroxyethyl)piperazin-1-yl)methanone] | – | – | – | – | – | – | 89% | – | – | – | – | – | + | 93.96% | 91.41% | 88.30% | 91.11% | 89.73% | 80.51% |
| Cc1c(C)c2c(c(C)c1O)CCC(C)(C(=O)N1CCN(CCO)CC1)O2 (stereo not drawn) [SUL - 138, (6-hydroxy-2,5,7,8-tetramethylchroman-2-yl)(4-(2-hydroxyethyl)piperazin-1-yl)methanone] | – | – | – | – | – | – | 89% | – | – | – | – | – | + | 92.84% | 91.74% | 77.01% | 91.71% | 93.30% | 86.94% |
| Cc1c2c(c(C(C)C)c(O)c1C(C)C)CCC(C)(C(=O)N1CCN(CC(=O)O)CC1)O2 (stereo not drawn) [SUL - 139, 2-(4-(6-hydroxy-5,7-diisopropyl-2,8-dimethylchroman-2-carbonyl)piperazin-1-yl)acetic acid] | 13.3% | 4.57% | 4.26% | 90% | 89.7% | 80.3% | 47% | – | – | – | – | – | + | – | – | – | – | – | – |
| Cc1c(C)c2c(c(C)c1O)CC[C@@](C)(C(=O)N1CCN(CC(=O)O)CC1)O2 [SUL - 141, (S)-2-(4-(6-hydroxy-2,5,7,8-tetramethylchroman-2-carbonyl)piperazin-1-yl)acetic acid] | 58.5% | 96.2% | 0.75% | 99.4% | 96.8% | 99.1% | 75% | – | – | – | – | – | + | – | – | – | – | – | – |
| Cc1c(C)c2c(c(C)c1O)CC[C@](C)(C(=O)N1CCN(CC(=O)O)CC1)O2 [SUL - 142, (R)-2-(4-(6-hydroxy-2,5,7,8-tetramethylchroman-2-carbonyl)piperazin-1-yl)acetic acid] | 0% | 73% | 98.5% | 99.2% | 99.4% | 91.9% | 77% | – | – | – | – | – | ++ | – | – | – | – | – | – |
